Legend:
[1] = system: isoprenylation of 21-26 kDa proteins in M600B cells; assay: Protein isoprenylation in M600B human mammary epithelial cells; format: cell-based
NIH3T3 cells = assay: Inhibition of NIH3T3 cell growth; format: cell-based, mouse; settings: FIG. 3
Procedure: (§1) NIH3T3 (mouse embryo) cells were obtained from the American Type Culture Collection and were grown in Dulbecco's modified Eagle's medium supplemented with 10% calf serum. M600B immortalized human mammary epithelial cells (Stampfer, M. R., 1985, J. Tissue Culture Methods 9: 107-115) were obtained from Dr. Martha Stampfer and were grown in supplemented HCDB 170 medium (Hammond, et al. (1984) Proc. Natl. Acad. Sci U.S.A. 81: 5435-5439), as described previously (Stampfer, et al. (1985) Proc. Natl. Acad. Sci U.S.A. 82: 2394-2398; Eldridge, et al. (1989) Cancer Res. 49: 4326-4331).
(§2) All cells were maintained in 100-mm dishes at 37° C. in a humidified 5% CO2 atmosphere. Viable cells were distinguished from nonviable cells by counting azure II/methylene blue-stained colonies 10 days after the cells were plated at a density of 100 cells per dish. Trypan blue exclusion was measured by incubating cells for 1 minute with one drop of trypan blue per 10 ml of cells. Viable (colorless) and nonviable (blue) cells were then counted on a hemocytometer.
(§3) Additionally, growth of HT29 (human colon adenocarcinoma) cells was inhibited by 80% by 1 mM perillyl alcohol.

M600B cells = assay: Inhibition of M600B cell growth; format: cell-based, human; settings: FIG. 4
Procedure: as §1, §2, §3

[2] = system: isoprenylation of 21-26 kDa proteins in NIH3T3 (mouse embryo) cells; assay: Protein isoprenylation in NIH3T3 cells (21-26 kDa bands, SDS-PAGE fluorography); format: cell-based
Procedure: NIH3T3 (mouse embryo) cells were obtained from the American Type Culture Collection and were grown in Dulbecco's modified Eagle's medium supplemented with 10% calf serum. […] Because they carried a radioactive label, isoprenylated proteins were visualized by fluorography. As a control, cells were incubated without the monoterpene. […] Whole cell extracts were analyzed by SDS-PAGE on 16-cm×18-cm×0.75-mm gels by the method of Laemmli (supra). […] Gels were stained with Coomassie Brilliant Blue, equilibrated for 20 minutes in Amplify (Amersham Corp.) fluorographic reagent, dried under vacuum at 65° C., and exposed to […] Some fluorograms were analyzed further by densitometry. […] Protein content was measured by the method of Lowry, et al. […] FIG. 1 depicts the structures of these monoterpenes.

[3] = system: DMBA-induced rat mammary carcinomas; assay: Pair-feeding study: regression and inhibition of DMBA-induced mammary carcinomas in rats; format: in vivo, Wistar-Furth female rats
Procedure: We used Wistar-Furth female rats for in vivo studies. Wistar-Furth female rats were obtained from Harlan Sprague-Dawley, Inc., (Madison, Wis.). […] Rates were provided Teklad Lab blox chow and acidified water ad libitum.
The DMBA was dissolved in a stock solution of 20 mg DMBA/ml sesame oil, heated and allowed to cool to room temperature before administration. DMBA (Eastman Kodak, Rochester, N.Y.) was given as a single gastric intubation of 50 mg DMBA/kg rat body weight.
In the pair-feeding study, a group of 70 mammals was treated with DMBA. Beginning four weeks post-carcinogen administration, mammals were weighed and palpated weekly.
Fresh diets were make every 7-10 days. All mammals were provided fresh diet daily to minimize evaporation of the monoterpenes.
In a pair-feeding study, all palpable mammary tumors were classified as either "primary" tumors (i.e., the first tumor(s) palpated with a minimum diameter of 3 mm) or "secondary" tumors (i.e. a palpable tumor arising after initial diet assignment). […] All carcinogen-exposed mammals not bearing a first palpable tumor by week 15 post-carcinogen were removed from the experiment. Complete regression of a tumor was defined as non-palpability for a minimum of three consecutive weeks. All mammals in the pair-feeding study were followed for a minimum of 10 weeks post-diet assignment for tumor growth or regression at primary tumor sites and all other mammary glands. The rats were necropsied if moribund. Complete necropsies were performed on all rats at the termination of the study.

[4] = system: p210-transformed FDC-P1 cells; assay: Proliferation of p210 bcr/abl-transformed FDC-P1 myeloid cells; format: cell-based, murine; settings: up to 800 μM; FIG. 9A
Procedure: (§4) (The p210 bcr/abl oncogene is carried on a helper-free retrovirus referred to as "p210.") FDC-P1 myeloid cells are an immature cell line from myeloid lineage derived from mouse bone marrow (Dexter, TM, J. Exp. Med. 152: 1036-1047, 1980).

[5] = system: nontransformed FDC-P1 cells; assay: Proliferation of nontransformed FDC-P1 myeloid cells; format: cell-based, murine; settings: up to 800 μM; FIG. 9A
Procedure: as §4

[6] = system: mammary, lung, and stomach cancers; settings: literature; cited from earlier work
[7] = cited from earlier work

With `C=C(C)[C@@H]1CC=C(C(=O)O)CC1` [Perillic acid, reference compound] the “isoprenylation of 21-26 kDa proteins” value ([1]; 5 mM, FIG. 2) was “inhibited significantly”, the inhibition of isoprenylation ([1]; all cell types examined) was “inhibition of isoprenylation” and the “inhibition of cell growth” value (NIH3T3 cells) was “significantly inhibited cell growth in a dose-dependent manner”. The “inhibition of cell growth” value (M600B cells) was “significantly inhibited cell growth in a dose-dependent manner”.

In the case of `C=C(C)[C@H]1CC=C(C)CC1` [limonene, d-Limonene], the “intensity of the 21-26-kDa bands” value ([2]; 0.5 mM or 5 mM, fluorography) is reported as “dose-responsive decrease in intensity”, the “intensity of the 66-, 46-, and 17-kDa bands” value ([2]; 0.5 mM or 5 mM, fluorography) is reported as “not different from that of the control” and the activity at 500 µM ([2]; Mus musculus, NIH3T3, 0.5 mM, slicing and scintillation counting, as reported in Crowell et al. (own work), read-out: isoprenylation of the 21-26-kDa bands remaining, of the control) is reported as about 50%. The activity at 5000 µM ([2]; Mus musculus, NIH3T3, 5 mM, slicing and scintillation counting, as reported in Crowell et al. (own work), read-out: isoprenylation of the 21-26-kDa bands remaining, of the control) was about 25%, the “spot at the dye front” value ([2]; fluorography) was “reduced with maximal inhibition at 5 mM” and the “intensity of the 21-26 kDa bands” value ([1]; 5 mM limonene) was “marked decrease in the intensity of the 21-26 kDa bands”. For the same compound, the minimal effective concentration ([1]; Homo sapiens, Epithelial cell, dose responsive, read-out: concentration required for significant inhibition of protein isoprenylation) was at least 1000 µM, the “number of secondary tumors compared with perillyl alcohol-fed mammals” value ([3]; 10% limonene diet versus 2.5% perillyl alcohol diet) was “higher” and the “Time to Regress” value ([3]; 10% limonene diet, Kaplan-Meier estimate of time when 25% of tumors will have regressed, p < 0.01, pair-fed control 14.5) was 3.25 wks. For the same compound, the “Primary Tumor Regression (tumors regressed / tumors)” value ([3]; 10% limonene diet, complete regression, p < 0.01 vs controls) was 19/28, the “Primary Tumor Regression (%)” value ([3]; 10% limonene diet, complete regression, pair-fed control 23%) was 68% and the “Number of Secondary Tumors/Rat” value ([3]; 10% limonene diet, p < 0.01, pair-fed control 1.92) was 1.08. The “Secondary Tumor Regression (tumors regressed / tumors)” value ([3]; 10% limonene diet, p < 0.01, pair-fed control 9/48) was 17/27, the “Secondary Tumor Regression (%)” value ([3]; 10% limonene diet, pair-fed control 19%) was 63% and the effect on proliferation [4] was “no effect”. For the same compound, the effect on proliferation [5] was “no effect”, the “activity against mammary, lung, and stomach cancers” value [6] was “reported to have activity against mammary” and the toxicity to humans ([7]; at the required usage levels) was “not toxic to humans”. For the same compound, the side-effects ([7]; particularly when a large dose is required in a short period) was “not without some side-effects”.

— patent US5587402A, “Regression of mammalian leukemia cell tumors” (priority 1995, dated 1996)
